{"source": "patent US12023308B2", "about": "“Agents for reversing toxic proteinopathies” (THE BROAD INSTITUTE, INC., priority 2019, dated 2024)", "key": {"ER stress and the UPR": {"tested_on": "ER stress and the UPR", "assay": "RNA-Seq pathway analysis of fs/+ mouse kidney lysates", "format": "in vivo", "settings": "fs/+ mice, 50 mg/kg/day, 7 days", "method": "RNA was extracted from a sagittal section of a half-kidney. Kidney tissue was homogenized using tissue homogenizer (Tissue-Tearor™, BioSpec Products) in 1 mL of TRIzol™ Reagent (15596026, Thermo Fisher Scientific®). Following 5 min incubation, 0.2 mL chloroform (C2432-500ML, Sigma-Aldrich) was added, and samples were vigorously mixed for 30 sec, then centrifuged at 12,000×g at 4° C. for 15 min. The upper aqueous phase containing RNA was then vigorously mixed with 0.5 mL of isopropanol for 30 sec. After 10 min incubation at RT, the samples were centrifuged at 12,000×g at 4° C. for 10 min. The pellet was resuspended in 1 mL of 75% ethanol and centrifuged at 12,000×g 4° C. for 5 min. The RNA pellet was then air dried for 15 min, dissolved in 50 μL of Nuclease-Free Water (AM9937, Thermo Fisher Scientific®), treated with DNase I, Amplification Grade (18068015, Thermo Fisher Scientific®) following the manufacturer's protocol and assessed for yield and purity by NanoDrop™ 2000 (Thermo Fisher Scientific®).\nData processing and statistical analyses for all RNA-seq experiments were performed in RStudio—Version 1.0.153 as follows. First, bam files obtained from the Broad Institute sequencing platform were reverted to FASTQ files followed by alignment of paired end reads to the mm10 mouse or hg19 human reference genome using STAR. […]"}, "MUC1-fs": {"tested_on": "MUC1-fs", "assay": "BRD-4780 treatment in fs/+ knock-in mice, kidney MUC1-fs by IF and Western blot", "format": "in vivo, mouse", "method": "Mice were anesthetized with 3 L/min 02 mixed with 3% isoflurane using the Combi-Vet® system (Rothacher Medical, Bern, Switzerland) for 5 min. Mouse kidneys were removed, sagittally cut to half and rapidly frozen in Tissue-Tek® O.C.T. Compound, Sakura® Finetek (OCT) (25608-930, VWR) using dry ice and 100% ethanol. Five […] sagittal cryosections (CM1950, Leica) were thaw mounted on microscope slides (Fisherbrand™ Superfrost™ Plus, Fisher Scientific) and kept in the cryostat (at −26° C.) for the duration of the sectioning process. Sections were immersion-fixed for 10 min in 4% PFA (15710, Electron Microscopy Sciences), then washed in PBS. The slides were then subjected to antigen retrieval by immersion in 10 mM citric acid buffer (pH=6), for 10 minutes at 95° C. […]\nMUC1-fs and MUC1-wt mean intensities were calculated in kidney sections of mice treated with either vehicle or BRD-4780 (FIGS. 4A, 4B and 12A). As MUC1-fs and MUC1-wt levels varied in different kidney regions, and as sections might contain different portions of the different kidney regions, the levels of these proteins were analyzed only in NCC-positive distal convoluted tubules. […] Each fluorescent channel intensity was measured and a threshold was set for the identification of NCC positive cells. MUC1-fs and MUC1-wt levels were then calculated only in the NCC positive cells. […]"}}}
{"smiles": "CC(C)[C@@H]1[C@H]2CC[C@H](C2)[C@H]1N", "note": "(racemic) [BRD-4780, 2-endo-amino-3-exo-isopropylbicyclo[2.2.1]heptane]", "values": [{"measurement": "pathways changed in kidney bulk RNA-Seq", "setting": "ER stress and the UPR", "value": "downregulated pathways associated with ER stress and the UPR"}, {"measurement": "MUC1-fs in kidney tissue at highest dose", "setting": "MUC1-fs; fs/+ mice, 50 mg/kg daily oral gavage, 7 days", "value": "nearly indistinguishable from control (+/+) mouse kidneys"}, {"measurement": "MUC1-fs protein in mouse kidneys", "setting": "MUC1-fs; mouse, in vivo", "value": "dose-dependent removal of mutant MUC1-fs protein"}]}
